Data published in US4448962A, “Substituted quinoline carboxylic acid derivatives” (Kyorin Seiyaku Kabushiki Kaisha, priority 1978, dated 1984).
Values after ≈ are worked out from the molar mass of the structure shown. Where a name gives a salt, the structure may show the parent alone. Read-outs that look alike come from different tables or passages of the source.

Key:
Test in all cases: Antibacterial spectrum (Minimum Inhibitory Concentration)
Format in all cases: cell-based
Ps. aeruginosa IFO 12689 = conditions: Pseudomonas aeruginosa
Description: (§1) The antibacterial tests were done according to the method authorized by the Chemotherapeutic Society of Japan.

[1] = system: Staphylococcus aureus 209P; conditions: read-out: Minimum Inhibitory Concentration
Description: as §1

Sta. aureus ATCC 14775 = conditions: Staphylococcus aureus
Description: as §1

[2] = system: Escherichia coli NIHJ JC-2
Description: as §1

[3] = system: Pseudomonas aeruginosa V-1
Description: as §1

[4] = system: Bacillus subtilis PCI 219
Description: as §1

[5] = system: Klebsiella pneumoniae IFO 3512
Description: as §1

Pr. vulgaris XK Denken = conditions: Proteus vulgaris, read-out: Minimum Inhibitory Concentration
Description: as §1

[6] = system: Proteus vulgaris IFO 3167
Description: as §1

E. coli ATCC 10536 = conditions: Escherichia coli
Description: as §1

Ps. aeruginosa IID 1130 = conditions: Pseudomonas aeruginosa, IID1130, read-out: Minimum Inhibitory Concentration
Description: as §1

Ps. aeruginosa IID 1210 = conditions: Pseudomonas aeruginosa, IID1210, read-out: Minimum Inhibitory Concentration
Description: as §1

[7] = IFO12689, Ps. aeruginosa IFO 12689, Gram -, read-out: Minimum Inhibitory Concentration
[8] = Staphylococcus aureus 209P, Gram +
[9] = ATCC14775, Sta. aureus ATCC 14775, Gram +, read-out: Minimum Inhibitory Concentration
[10] = NIHJJC2, Escherichia coli NIHJ JC-2, Gram -, read-out: Minimum Inhibitory Concentration
[11] = V1, Pseudomonas aeruginosa V-1, Gram -, read-out: Minimum Inhibitory Concentration
[12] = PCI219, Bacillus subtilis PCI 219, Gram +, read-out: Minimum Inhibitory Concentration
[13] = IFO3512, Klebsiella pneumoniae IFO 3512, Gram -, read-out: Minimum Inhibitory Concentration
[14] = IFO3167, Proteus vulgaris IFO 3167, Gram -, read-out: Minimum Inhibitory Concentration
[15] = ATCC10536, E. coli ATCC 10536, Gram -, read-out: Minimum Inhibitory Concentration
[16] = IFO12689, read-out: Minimum Inhibitory Concentration
[17] = ATCC14775, read-out: Minimum Inhibitory Concentration
[18] = Escherichia coli, NIHJJC2, read-out: Minimum Inhibitory Concentration
[19] = Pseudomonas aeruginosa, V1, read-out: Minimum Inhibitory Concentration
[20] = Bacillus subtilis, PCI219, read-out: Minimum Inhibitory Concentration
[21] = Klebsiella pneumoniae, IFO3512, read-out: Minimum Inhibitory Concentration
[22] = Proteus vulgaris, IFO3167, read-out: Minimum Inhibitory Concentration
[23] = ATCC10536, read-out: Minimum Inhibitory Concentration

Compound: CCCn1cc(C(=O)O)c(=O)c2cc(F)c(N3CCNCC3)cc21 [Example 19, 1-propyl-6-fluoro-7-(1-piperazinyl)-4-oxo-1,4-dihydroquinoline-3-carboxylic acid hydrochloride]
- MIC (Ps. aeruginosa IFO 12689; [7]): 12.5 µg/mL
- MIC [1, 8]: 1.56 µg/mL
- MIC (Sta. aureus ATCC 14775; [9]): 3.13 µg/mL
- MIC [2, 10]: 0.2 µg/mL
- MIC [3, 11]: 3.13 µg/mL
- MIC [4, 12]: 0.39 µg/mL
- MIC [5, 13]: 0.2 µg/mL
- MIC (Pr. vulgaris XK Denken; Pr. vulgaris XK Denken, Gram -): 0.39 µg/mL
- MIC [6, 14]: 0.2 µg/mL
- MIC (E. coli ATCC 10536; [15]): 0.39 µg/mL

Compound: C=Cn1cc(C(=O)O)c(=O)c2cc(F)c(N3CCNCC3)cc21.Cl [Example 3, 1-vinyl-6-fluoro-7-(1-piperazinyl)-4-oxo-1,4-dihydro-quinoline-3-carboxylic acid hydrochloride]
- MIC (Ps. aeruginosa IFO 12689; [16]): 1.56 µg/mL
- MIC ([1]; Staphylococcus aureus, 209P): 3.13 µg/mL
- MIC (Ps. aeruginosa IID 1130): 1.56 µg/mL
- MIC (Sta. aureus ATCC 14775; [17]): 6.25 µg/mL
- MIC [2, 18]: 0.1 µg/mL
- MIC [3, 19]: 0.39 µg/mL
- MIC [4, 20]: 0.39 µg/mL
- MIC [5, 21]: 0.1 µg/mL
- MIC (Pr. vulgaris XK Denken): 0.39 µg/mL
- MIC [6, 22]: 0.2 µg/mL
- MIC (E. coli ATCC 10536; [23]): 0.1 µg/mL
- MIC (Ps. aeruginosa IID 1210): 1.56 µg/mL

Compound: CC(=O)N1CCN(c2cc3c(cc2F)c(=O)c(C(=O)O)cn3CCO)CC1 [Example 26, 1-(2-hydroxyethyl)-6-fluoro-7-(4-acetyl-1-piperazinyl)-4-oxo-1,4-dihydroquinoline-3-carboxylic acid]
- MIC (Ps. aeruginosa IFO 12689; [7]): > 25 µg/mL
- MIC [1, 8]: > 25 µg/mL
- MIC (Sta. aureus ATCC 14775; [9]): > 25 µg/mL
- MIC [2, 10]: > 25 µg/mL
- MIC [3, 11]: > 25 µg/mL
- MIC [4, 12]: 12.5 µg/mL (≈ 33.1 µM)
- MIC [5, 13]: 6.25 µg/mL (≈ 16.6 µM)
- MIC (Pr. vulgaris XK Denken; Pr. vulgaris XK Denken, Gram -): > 25 µg/mL
- MIC [6, 14]: > 25 µg/mL
- MIC (E. coli ATCC 10536; [15]): 25 µg/mL (≈ 66.2 µM)

Compound: CCn1cc(C(=O)O)c(=O)c2cc(Cl)c(N3CCN(Cc4ccccc4)CC3)cc21 [Example 11, 1-ethyl-6-chloro-7-(4-benzyl-1-piperazinyl)-4-oxo-1,4-dihydroquinoline-3-carboxylic acid]
- MIC (Ps. aeruginosa IFO 12689; [7]): > 100 µg/mL
- MIC [1, 8]: 3.13 µg/mL (≈ 7.35 µM)
- MIC [2, 10]: 100 µg/mL (≈ 235 µM)
- MIC [3, 19]: > 100 µg/mL
- MIC [4, 12]: 1.56 µg/mL (≈ 3.66 µM)
- MIC [5, 13]: 0.78 µg/mL (≈ 1.83 µM)
- MIC (Pr. vulgaris XK Denken; Pr. vulgaris XK Denken, Gram -): 50 µg/mL (≈ 117 µM)
- MIC [6, 14]: 100 µg/mL (≈ 235 µM)
- MIC (E. coli ATCC 10536; [15]): 25 µg/mL (≈ 58.7 µM)

Compound: C=CCn1cc(C(=O)O)c(=O)c2cc(F)c(N3CCNCC3)cc21 [Example 21, hydrochloride]
- MIC (Ps. aeruginosa IFO 12689; [16]): 6.25 µg/mL
- MIC [1, 8]: 3.13 µg/mL
- MIC (Sta. aureus ATCC 14775; [9]): 6.25 µg/mL
- MIC [2, 10]: 0.2 µg/mL
- MIC [3, 11]: 1.56 µg/mL
- MIC [4, 12]: 0.78 µg/mL
- MIC [5, 13]: 0.2 µg/mL
- MIC (Pr. vulgaris XK Denken; Pr. vulgaris XK Denken, Gram -): 0.39 µg/mL
- MIC [6, 14]: 0.2 µg/mL
- MIC (E. coli ATCC 10536; [15]): 0.2 µg/mL

Compound: CCN1CCN(c2cc3c(cc2F)c(=O)c(C(=O)O)cn3CC)CC1 [Example 2, 1-ethyl-6-fluoro-7-(4-ethyl-1-piperazinyl)-4-oxo-1,4-dihydroquinoline-3-carboxylic acid]
- MIC (Ps. aeruginosa IFO 12689; [16]): 6.25 µg/mL (≈ 18 µM)
- MIC [2, 10]: 0.1 µg/mL (≈ 0.288 µM)
- MIC [3, 11]: 3.13 µg/mL (≈ 9.01 µM)
- MIC [5, 13]: < 0.025 µg/mL
- MIC (Pr. vulgaris XK Denken; Pr. vulgaris XK Denken, Gram -): 0.2 µg/mL (≈ 0.576 µM)
- MIC [6, 14]: 0.2 µg/mL (≈ 0.576 µM)
- MIC (E. coli ATCC 10536; [15]): 0.1 µg/mL (≈ 0.288 µM)

Compound: Cl.Cn1cc(C(=O)O)c(=O)c2cc(F)c(N3CCNCC3)cc21 [Example 18, 1-methyl-6-fluoro-7-(1-piperazinyl)-4-oxo-1,4-dihydroquinoline-3-carboxylic acid hydrochloride]
- MIC (Ps. aeruginosa IFO 12689; [16]): 3.13 µg/mL
- MIC ([1]; Staphylococcus aureus, 209P): 6.25 µg/mL
- MIC (Sta. aureus ATCC 14775; [17]): 12.5 µg/mL
- MIC [2, 18]: 0.39 µg/mL
- MIC [3, 19]: 1.56 µg/mL
- MIC [4, 20]: 0.78 µg/mL
- MIC [5, 21]: 0.39 µg/mL
- MIC (Pr. vulgaris XK Denken): 1.56 µg/mL
- MIC [6, 22]: 0.39 µg/mL
- MIC (E. coli ATCC 10536; [23]): 0.39 µg/mL

Compound: CCN1CCN(c2cc3c(cc2Cl)c(=O)c(C(=O)O)cn3CC)CC1 [Example 10, 1-ethyl-6-chloro-7-(4-ethyl-1-piperazinyl)-4-oxo-1,4-dihydroquinoline-3-carboxylic acid]
- MIC (Ps. aeruginosa IFO 12689; [7]): > 100 µg/mL
- MIC [1, 8]: 0.78 µg/mL (≈ 2.14 µM)
- MIC [2, 10]: 1.56 µg/mL (≈ 4.29 µM)
- MIC [3, 11]: 50 µg/mL (≈ 137 µM)
- MIC [4, 12]: 0.78 µg/mL (≈ 2.14 µM)
- MIC [5, 13]: < 0.2 µg/mL
- MIC (Pr. vulgaris XK Denken; Pr. vulgaris XK Denken, Gram -): 1.56 µg/mL (≈ 4.29 µM)
- MIC [6, 14]: 1.56 µg/mL (≈ 4.29 µM)
- MIC (E. coli ATCC 10536; [15]): 0.78 µg/mL (≈ 2.14 µM)
